From patent publication US20260232699A1, “COMPOSITIONS OF A CANNABINOID AND A KINASE INHIBITOR FOR THE TREATMENT OF CANCER” (SINOVEDA CANADA INC., priority 2023, published 2026)
Like-named read-outs stand apart in the source and are kept apart here.

System: HepG2 cells
Experiment: HepG2 cell proliferation assay (XTT)
Assay type: cell-based, human
Conditions: Homo sapiens
Procedure: HepG2 cells were obtained from the American Type Culture Collection (ATCC). Normal hepatocyte pool of cells was acquired from Xenotech. Cryopreserved cells in DMEM containing 5% DMSO were thawed and diluted 10-fold in phenol red free DMEM media containing 10% fetal bovine serum, 100 μg/ml penicillin/streptomycin, supplemented with Glutamax™ and sodium pyruvate. Subsequently, cells were centrifuged at 20 g for 10 minutes. The cells were resuspended in the same media with added Revitacell® to a concentration of […]. Ninety-six well cell culture treated flat bottom plates were seeded with 7.5×10^3 cells in 100 μl and incubated at 37° C., 7.5% CO2, >95% relative humidity for 18 hours to allow cellular adhesion after which media was replaced with like media (DMEM, IMDM, Williams E) containing 1 to 20% FBS and various test compounds (10 μg/ml to 100 ng/ml). After 48 hours (2 doublings of cells), sodium; 2-(2-methoxy-4-nitro-5-sulfonatophenyl)-3-(2-methoxy-4-nitro-5-sulfophenyl)-N-phenyltetrazol-3-ium-5-carboximidate (XTT) (300 μg/ml) was added, and cells incubated for 2 hours. Formazan production was measured at 450 nm on a Varioskan lux spectrophotometer. Non-specific absorption was measured at 660 nm and subtracted from the reference measurement at 450 nm. Experiments were performed in triplicates (n=3). […]
The objectives of this example are to, first, establish the procedure of a two-component interaction study; and second, establish a method of analysis to identify potential interactions among the two components/compounds. […] Following 48 hours of incubation, the IC50 values of various mixtures were obtained and compared with the pure compound's IC50 values and predicted/calculated IC50 values for the various mixtures. […]
Samples from the serial dilutions were analyzed by LC-MS/MS to orthogonally confirm concentrations. […]
To assess potential interactions, the IC50 values for individual cannabinoids in the control lanes were calculated and used to predict and IC50 value for the summation of their individual components.

Q: With `CNC(=O)c1cc(Oc2ccc(NC(=O)Nc3ccc(Cl)c(C(F)(F)F)c3)cc2)ccn1` [Sorafenib] as the molecule, how does the IC50 (IMDM media with 20% FBS and 1% ethanol, read-out: predetermined IC50 concentrations) read?
A: 12 µM

Q: And the IC50 (XTT, DMEM media with 20% FBS, 48 hour treatment, read-out: IC50 HepG2)?
A: 9.8 µg/mL
